Experimental data: patent US10759721B2, “Deuterated CFTR potentiators” (Vertex Pharmaceuticals (Europe) Limited, priority 2015, dated 2020)
Read-outs that look alike come from different tables or passages of the source.

Experiments:
CYP3A4 = target: T1, CYP3A4 (Homo sapiens, UniProt P08684); experiment: Metabolic stability in human CYP3A4 Supersomes; assay type: in vitro ADME; details: recombinant human CYP3A4 Supersomes, pH 7.4, human CYP3A4 Supersomes, read-out: calculated average half-life
T1 construct: purchased BD Biosciences
Description: (§1) Stock solutions (7.5 mM) of Compound 100 and Compound A were prepared in DMSO. The 7.5 mM stock solutions were diluted to 12.5 μM in acetonitrile (ACN). The human CYP3A4 Supersomes™ (2000 pmol/mL, purchased from BD Biosciences™) were diluted to 62.5 pmol/mL in 0.1 M potassium phosphate buffer, pH 7.4, containing 3 mM MgCl2. The diluted supersomes were added to wells of a 96-well polypropylene plate in triplicate. A 10 μL aliquot of the 12.5 μM test compound was added to the supersomes and the mixture was pre-warmed for 10 minutes. Reactions were initiated by addition of pre-warmed NADPH solution. The final reaction volume was 0.5 mL and contained 50 pmol/mL CYP3A4 Supersomes™, 0.25 μM test compound, and 2 mM NADPH in 0.1 M potassium phosphate buffer, pH 7.4, and 3 mM MgCl2. The reaction mixtures were incubated at 37° C., and 50 μL aliquots were removed at 0, 3, 7, 10, 20 and 30 minutes and added to 96-well plates which contained 125 μL of ice-cold ACN with internal standard to stop the reactions. The plates were stored at 4° C. for 20 minutes after which 75 μL of water was added to the wells of the plate before centrifugation to pellet precipitated proteins. Supernatants were transferred to another 96-well plate and analyzed for amounts of parent remaining by LC-MS/MS using an AB Sciex QTrap 5500 mass spectrometer.
(§2) The in vitro half-lives (t1/2 values) for test compounds were calculated from the slopes of the linear regression of LN (% parent remaining) vs incubation time relationship: in vitro t1/2=0.693/k, where k=−[slope of linear regression of LN (% parent remaining) vs incubation time].
as §1, with “Compound 120” for “Compound 100”, “Compound B” for “Compound A”

human CYP3A4 Supersomes = target: T2, human CYP3A4 Supersomes (Homo sapiens, UniProt P08684); experiment: Metabolic stability in human CYP3A4 Supersomes; assay type: in vitro ADME; details: for average increase in t1/2 / apparent intrinsic clearance ratio: human CYP3A4 Supersomes; for Clint, app rCYP: human CYP3A4 Supersomes 50 pmol/mL, 0.25 μM test compound, CL int = (0.693/in vitro t1/2)(mL incubation volume/pmol P450)
T2 construct: purchased BD Biosciences
Description: as §1, §2
as §1, with “Compound 120” for “Compound 100”, “Compound B” for “Compound A”

[1] = test system: patients with cystic fibrosis carrying at least one copy of the G551D-CFTR mutation; details: phase III trials; cited from earlier work

T2 sequence (P08684 whole entry): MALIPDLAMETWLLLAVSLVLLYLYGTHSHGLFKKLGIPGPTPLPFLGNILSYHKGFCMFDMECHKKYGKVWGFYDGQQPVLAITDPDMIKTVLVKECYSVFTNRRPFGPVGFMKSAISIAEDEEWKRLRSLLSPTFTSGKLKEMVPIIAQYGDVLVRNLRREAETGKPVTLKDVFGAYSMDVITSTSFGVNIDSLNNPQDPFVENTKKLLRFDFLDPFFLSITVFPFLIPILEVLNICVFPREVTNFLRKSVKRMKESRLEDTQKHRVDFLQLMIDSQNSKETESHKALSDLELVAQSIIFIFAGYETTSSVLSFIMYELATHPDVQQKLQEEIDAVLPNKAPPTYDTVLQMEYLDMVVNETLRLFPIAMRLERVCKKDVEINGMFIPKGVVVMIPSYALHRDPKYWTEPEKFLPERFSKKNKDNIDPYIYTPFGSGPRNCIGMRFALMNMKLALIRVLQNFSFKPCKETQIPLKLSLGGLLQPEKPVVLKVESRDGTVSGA
T1 sequence (P08684 whole entry): as above

half-life at 0.25 μM (CYP3A4; text of Example 3) [min]	Clint, app rCYP (human CYP3A4 Supersomes; Table 2) [µL/min/pmol]	half-life at 0.25 μM (CYP3A4; Example 4) [min]	Clint, app rCYP (human CYP3A4 Supersomes; Table 3) [µL/min/pmol]	Compound	further results
26.5	0.26 ± 0.00	–	–	[2H]C([2H])([2H])C(c1ccc(NC(=O)c2c[nH]c3ccccc3c2=O)cc1O)(C([2H])([2H])[2H])C([2H])([2H])[2H] [Compound 100, N-(3-Hydroxy-4-(2-(methyl-d3)propan-2-yl-1,1,1,3,3,3-d6)phenyl)-4-oxo-1,4-dihydroquinoline-3-carboxamide]	average increase in t1/2 (human CYP3A4 Supersomes; Compound 100 relative to Compound A): 75%; apparent intrinsic clearance ratio (human CYP3A4 Supersomes; ratio 100/A): 0.57; stability in Human CYP3A4 Supersomes relative to Compound A (human CYP3A4 Supersomes; relative to Compound A): more stable
–	–	20.6	0.34 ± 0.00	[2H]C([2H])([2H])C(c1cc(C(F)(F)F)c(NC(=O)c2c[nH]c3ccccc3c2=O)cc1O)(C([2H])([2H])[2H])C([2H])([2H])[2H] [Compound 120, N-(5-hydroxy-4-(2-(methyl-d3)propan-2-yl-1,1,1,3,3,3-d6)-2-(trifluoromethyl)phenyl)-4-oxo-1,4-dihydroquinoline-3-carboxamide]	average increase in t1/2 (human CYP3A4 Supersomes; Compound 120 relative to Compound B): 42%; apparent intrinsic clearance ratio (human CYP3A4 Supersomes; ratio 120/B): 0.71; stability in Human CYP3A4 Supersomes relative to Compound B (human CYP3A4 Supersomes; relative to Compound B): more stable
15.1	0.46 ± 0.02	–	–	CC(C)(C)c1ccc(NC(=O)c2c[nH]c3ccccc3c2=O)cc1O [Compound A, N-(4-(tert-butyl)-3-hydroxyphenyl)-4-oxo-1,4-dihydroquinoline-3-carboxamide, reference compound]	–
–	–	14.5	0.48 ± 0.06	CC(C)(C)c1cc(C(F)(F)F)c(NC(=O)c2c[nH]c3ccccc3c2=O)cc1O [Compound B, N-(4-(tert-butyl)-5-hydroxy-2-(trifluoromethyl)phenyl)-4-oxo-1,4-dihydroquinoline-3-carboxamide, reference compound]	–
–	–	–	–	CC(C)(C)c1cc(C(C)(C)C)c(NC(=O)c2c[nH]c3ccccc3c2=O)cc1O [VX-770, N-(2,4-di-tert-butyl-5-hydroxyphenyl)-4-oxo-1,4-dihydroquinoline-3-carboxamide]	improvement in lung function and other key indicators of the disease (sweat chloride levels, likelihood of pulmonary exacerbations, body weight) [1]: marked levels of improvement
